The term viability, T/C denotes the ratio of treated to control. A word on the pIC50: it is the IC50 on a negative log10 scale, so that one unit is a factor of ten.

Drawing on PubChem BioAssay AID1963425 (Molecular Pharmacology Branch, DTP, NCI, 2024), this text covers viability, T/C and IC50 for 1 compound.

The test system of the experiment is 323965-272-R-J2-PDC complex spheroid growth, % test/control. The experiment is described as follows: Anticancer human tumor 323965-272-R-J2-PDC patient-derived pancreatic carcinoma cell line growth inhibition [Asc]. To be noted: for viability, T/C: stronger effect = lower value. The method, then: Multicellular complex tumor spheroid response to apoptosis pathway targeting inhibitors Alrizomadlin, Pelcitoclax, and Dasminapant in combination with a variety of drugs and investigational agents in selected tumor cell lines
The MDM2 inhibitor alrizomadlin, the Bcl-2/Bcl-xL inhibitor pelcitoclax, and the IAPs inhibitor dasminapant were evaluated both individually and in combination with standard of care and investigational anticancer small molecules within a complex spheroid model of solid tumors. . Complex spheroids include a stromal component modeled by human endothelial cells (HUVEC) and fibroblasts modeled by human mesenchymal stem cells (MSCs). The concentration ranges selected for each drug and investigational agent were based upon clinically achievable concentrations if the clinical Cmax of the agent was known.
Compounds. The drugs and investigational agents: alrizomadlin (APG-115; NSC831270), pelcitoclax (APG-1252; NSC835773), dasminapant (APG-1387;NSC834197), TAK-243 (NSC785004), copanlisib (NSC809693), olaparib (NSC753686), talazoparib (NSC767125), cobimetinib (NSC 768068), eltanexor (KPT-8602, NSC 794443), abemaciclib (NSC 768073), sotorasib (NSC818433), adagrasib (NSC 831453), MRTX-1133 (NSC 836407), Iadademestat (ORY1001, NSC 806812), and RMC-4630 (NSC839698), were obtained from the NCI Developmental Therapeutics Program Chemical Repository. The FDA-approved anticancer drug set is available from the Developmental Therapeutics Program at https://dtp.cancer.gov/organization/dscb/obtaining/available plates.htm. […] The stock solutions were prepared in dimethyl sulfoxide (DMSO, Sigma-Aldrich, St. Louis, MO, cat. D2650) at 800-fold the tested concentration and stored at -70 degrees C prior to their use. All drugs and investigational agents were tested over a range starting from a high concentration at or near the clinical Cmax and decreasing in half-log increments. If the clinical Cmax for an agent had not been determined, the highest concentration tested was 10 microM.
The patient-derived cancer (PDC) cell lines include five colon adenocarcinomas: 186277-243-T-J2-PDC, 616215-338-R-J1-PDC, 439559-082-T-J2-PDC, 463943-066-T-J2-PDC, and 519858-162-T-J1-PDC; three pancreatic carcinomas: 323965-272-R-J2-PDC, 521955-158-R6-J3-PDC, and 521955-158-R2-J5-PDC; two uterine sarcomas: 327498-152-R-J2-PDC and 993429-296-R-J1-PDC; two rhabdomyosarcomas: 755483-174-R-J1-PDC and 772245-204-R-J1-PDC; two soft tissue sarcomas: 126254-015-R-J1-PDC and 494315-158-R-J1-PDC; two malignant fibrous histiocytomas: 317291-083-R-J1-PDC and 596521-263-R-J1-PDC; two breast carcinomas: 171881-019-R-J1-PDC and 885512-296-R-J2-PDC; and one ovarian carcinoma: 6556581-035-R-J-PDC were obtained from the NCI PDMR, (https://pdmr.cancer.gov). The established cell lines HSSY-2 synovial sarcoma (RRID:CVCL 8719), SYO-1 synovial sarcoma (RRID:CVCL_7146), MPNST malignant peripheral neural sheath tumor were obtained from the Sloan Kettering Institute. The following established cell lines were purchased from the American Type Culture Collection (ATCC, Manassas, VA), Sor the received from the NCI repository:, PANC-1 pancreatic carcinoma (CRL-1469, RRID:CVCL_0480), OVCAR-5 ovarian carcinoma (RRID:CVCL_1628), OVCAR-8 ovarian carcinoma (RRID:CVCL_1629), , MCF-7 breast carcinoma (CRL-12584, RRID:CVCL_0031), MDA-MB-231 breast carcinoma (CRL-12532, RRID:CVCL_0062), NCI-H1876 small cell lung carcinoma (CRL-5902, RRID:CVCL_1503), NCI-H510A small cell lung carcinoma (HTB-184, RRID:CVCL_1565), NCI-H1417 (CRL-5869, RRID:CVCL_1469), and NCI-H196 small cell lung carcinoma (CRL-5823, RRID:CVCL_1509). Dr. Peter Houghton (Greehey Children's Cancer Research Institute, University of Texas Health Science Center, San Antonio, TX) provided Rh-18 rhabdomyosarcoma (RRID:CVCL_1659). Pooled donor human umbilical vein endothelial cells (HUVEC, Lonza, cat. CC-2519) and human mesenchymal stem cells (hMSC, Lonza, cat. PT-2501) were purchased from Lonza (Walkersville, MD).
Cell Culture. […]

Molecules are shown by their SMILES. pIC50: −log10 of the molar value. Values joined by “and” are separate entries in the source; they are usually repeats but may differ in a detail not shown here. Equal values may be shown once.
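Further: compound exposure lasted 7 days starting three days after spheroid seeding.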
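Wherever viability, T/C is given: 100% = DMSO vehicle control wells with viability set relative to vehicle.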

`COc1c(OCCCN2CCOCC2)ccc2c3n(c(=NC(=O)c4cnc(N)nc4)nc12)CCN3`: the viability, T/C reads like this: (compound 0.00316 µM) 100% and 85.6% and 103%; (compound 0.01 µM) 99.3% and 80.7% and 93%; (compound 0.0316 µM) 79.6% and 65.5% and 71.6%; (compound 0.1 µM) 49.5% and 56.1% and 55.9%; (compound 0.316 µM) 32.8% and 41.2% and 33.7%; (compound 1 µM) 30.5% and 33.6% and 25.3%. Further, the pIC50 (curve of compound) was 6.81 and 6.92 and 7.04.
